Laboratory results reported in patent publication US20110195041A1, “ANTIMICROBIAL COMPOSITIONS” (NDSU RESEARCH FOUNDATION, priority 2008, published 2011).
Converted amounts (≈) assume the structure as drawn.

Experiments:
S. epidermidis = assay: Minimum inhibitory concentration (MIC) of triclosan; assay type: cell-based; conditions: Staphylococcus epidermidis; tryptic soy broth; range 0.2 to 25 μg/mL; complete growth inhibition
Method: (§1) The antimicrobial activity of triclosan toward the microorganisms of interest was determined by measuring the minimum inhibitor concentration (MIC). The protocol for determining the minimum inhibitory concentration (MIC) of antimicrobial agents in solution has been reported previously (described in Stafslien, S., et al., Biofouling, 2007. 23(1/2): 37-44.). Triclosan was serially diluted (2-fold) in marine broth, tryptic soy broth, and Guillard's F/2 medium for the MIC evaluation of C. lytica, S. epidermidis or E. coli, and N. incerta, respectively. The triclosan concentration range evaluated was from 0.2 μg/mL to 25 μg/mL.

C. lytica = assay: as above; assay type: cell-based; conditions: Cellulophaga lytica; marine broth; range 0.2 to 25 μg/mL; complete growth inhibition
Method: as §1

Oc1cc(Cl)ccc1Oc1ccc(Cl)cc1Cl [Triclosan, 5-chloro-2-(2,4-dichlorophenoxy)phenol]
MIC (S. epidermidis): ≤ 0.2 µg/mL
MIC (C. lytica): 12.5 µg/mL (≈ 43.2 µM)
